Columns and labels:
potassium arsenate = compound: O=[As]([O-])(O)O.[K+] [potassium arsenate]; assay: thermal stability z-score vs DMSO; higher = more thermally stabilized by treatment; conditions: HeLa; arsenate concentration 1 mM
Description: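 Cellular thermal proteome profiling in HeLa cells treated with 1 mM arsenate for 1 h (DMSO pretreatment), heated to ten temperatures (37-66.3 °C). Soluble protein was quantified by TMT mass spectrometry relative to DMSO controls; the thermal stability score was transformed to a z-score; mean of n = 3 experiments.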

lipoamide = compound: NC(=O)CCCCC1CCSS1 [lipoamide]; assay: as above; conditions: HeLa, lipoamide concentration 100 µM
Description: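 Cellular thermal proteome profiling in HeLa cells. Cells were treated with 100 µM lipoamide for 1 h, with or without 1 mM arsenate for a further 1 h, then heated to ten temperatures (37-66.3 °C), and soluble protein was quantified by TMT mass spectrometry relative to 0.1% DMSO controls. The thermal stability score (sum of log2 fold changes minus the abundance score) was transformed to a z-score; mean of n = 3 experiments.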

[1] = arsenate co-treatment: 1 mM arsenate 1 h
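Further: each temperature applied for 3 min, abundance score taken as mean log2 fold change at the two lowest temperatures, z-score obtained by mean subtraction and division by SD.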

Sequence of UniProt Q9BRG1 (Q9BRG1 whole entry): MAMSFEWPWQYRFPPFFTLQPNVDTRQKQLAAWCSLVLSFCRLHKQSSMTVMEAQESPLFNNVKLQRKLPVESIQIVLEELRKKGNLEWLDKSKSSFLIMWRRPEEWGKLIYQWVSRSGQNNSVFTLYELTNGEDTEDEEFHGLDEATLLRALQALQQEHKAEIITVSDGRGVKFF
Sequence of UniProt Q96AX1 (Q96AX1 whole entry): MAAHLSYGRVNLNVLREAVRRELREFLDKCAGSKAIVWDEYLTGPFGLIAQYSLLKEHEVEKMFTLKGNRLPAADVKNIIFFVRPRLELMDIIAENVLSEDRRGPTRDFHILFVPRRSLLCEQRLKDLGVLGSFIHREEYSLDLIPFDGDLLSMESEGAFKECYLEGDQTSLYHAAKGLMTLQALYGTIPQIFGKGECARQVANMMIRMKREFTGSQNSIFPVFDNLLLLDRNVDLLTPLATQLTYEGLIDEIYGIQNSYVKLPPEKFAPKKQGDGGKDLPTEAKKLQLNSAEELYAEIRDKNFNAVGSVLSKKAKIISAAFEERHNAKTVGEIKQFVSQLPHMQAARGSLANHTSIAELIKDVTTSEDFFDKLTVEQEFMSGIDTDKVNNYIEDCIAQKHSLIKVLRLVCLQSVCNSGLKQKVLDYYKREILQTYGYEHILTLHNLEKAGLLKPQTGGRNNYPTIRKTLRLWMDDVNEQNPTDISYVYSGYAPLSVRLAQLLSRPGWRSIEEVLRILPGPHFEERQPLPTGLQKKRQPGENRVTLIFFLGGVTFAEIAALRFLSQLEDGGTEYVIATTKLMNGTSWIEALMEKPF
Sequence of UniProt Q8N3P4 (Q8N3P4 whole entry): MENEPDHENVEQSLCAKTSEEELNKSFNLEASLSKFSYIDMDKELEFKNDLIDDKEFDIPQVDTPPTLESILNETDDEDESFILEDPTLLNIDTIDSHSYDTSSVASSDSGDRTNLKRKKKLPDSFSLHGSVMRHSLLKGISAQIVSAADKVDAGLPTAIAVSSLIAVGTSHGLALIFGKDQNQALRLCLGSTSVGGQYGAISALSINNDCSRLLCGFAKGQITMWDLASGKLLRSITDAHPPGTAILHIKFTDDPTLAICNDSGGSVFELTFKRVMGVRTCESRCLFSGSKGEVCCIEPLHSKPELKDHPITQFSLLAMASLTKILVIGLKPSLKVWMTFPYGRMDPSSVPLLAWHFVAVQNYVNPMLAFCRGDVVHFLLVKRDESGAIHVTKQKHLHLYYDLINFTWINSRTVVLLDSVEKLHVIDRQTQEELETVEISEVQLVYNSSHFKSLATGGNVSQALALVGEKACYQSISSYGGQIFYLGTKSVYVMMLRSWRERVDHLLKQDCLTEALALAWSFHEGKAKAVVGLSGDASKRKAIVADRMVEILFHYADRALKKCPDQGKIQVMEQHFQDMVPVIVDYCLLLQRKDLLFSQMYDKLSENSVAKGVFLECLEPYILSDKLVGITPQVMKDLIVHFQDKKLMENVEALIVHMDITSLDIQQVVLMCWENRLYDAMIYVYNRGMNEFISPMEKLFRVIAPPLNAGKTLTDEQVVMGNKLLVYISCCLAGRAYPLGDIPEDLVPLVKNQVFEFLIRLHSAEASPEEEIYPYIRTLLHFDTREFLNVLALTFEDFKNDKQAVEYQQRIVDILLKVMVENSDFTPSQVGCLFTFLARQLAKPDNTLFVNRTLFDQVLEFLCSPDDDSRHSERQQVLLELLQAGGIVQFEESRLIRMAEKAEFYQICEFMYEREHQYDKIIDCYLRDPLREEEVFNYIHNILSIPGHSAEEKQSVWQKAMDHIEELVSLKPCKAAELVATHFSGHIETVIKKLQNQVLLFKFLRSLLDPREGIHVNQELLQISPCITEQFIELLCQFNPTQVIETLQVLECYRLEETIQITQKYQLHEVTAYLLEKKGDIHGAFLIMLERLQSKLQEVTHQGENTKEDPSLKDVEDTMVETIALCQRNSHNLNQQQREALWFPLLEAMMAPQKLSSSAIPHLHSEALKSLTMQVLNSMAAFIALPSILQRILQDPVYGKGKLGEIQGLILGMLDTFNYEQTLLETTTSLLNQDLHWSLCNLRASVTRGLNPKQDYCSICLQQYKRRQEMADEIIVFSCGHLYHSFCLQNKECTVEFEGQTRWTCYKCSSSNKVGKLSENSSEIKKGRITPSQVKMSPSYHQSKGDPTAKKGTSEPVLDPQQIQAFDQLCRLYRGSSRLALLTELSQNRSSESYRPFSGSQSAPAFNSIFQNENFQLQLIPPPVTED
Sequence of UniProt Q9H269 (Q9H269 whole entry): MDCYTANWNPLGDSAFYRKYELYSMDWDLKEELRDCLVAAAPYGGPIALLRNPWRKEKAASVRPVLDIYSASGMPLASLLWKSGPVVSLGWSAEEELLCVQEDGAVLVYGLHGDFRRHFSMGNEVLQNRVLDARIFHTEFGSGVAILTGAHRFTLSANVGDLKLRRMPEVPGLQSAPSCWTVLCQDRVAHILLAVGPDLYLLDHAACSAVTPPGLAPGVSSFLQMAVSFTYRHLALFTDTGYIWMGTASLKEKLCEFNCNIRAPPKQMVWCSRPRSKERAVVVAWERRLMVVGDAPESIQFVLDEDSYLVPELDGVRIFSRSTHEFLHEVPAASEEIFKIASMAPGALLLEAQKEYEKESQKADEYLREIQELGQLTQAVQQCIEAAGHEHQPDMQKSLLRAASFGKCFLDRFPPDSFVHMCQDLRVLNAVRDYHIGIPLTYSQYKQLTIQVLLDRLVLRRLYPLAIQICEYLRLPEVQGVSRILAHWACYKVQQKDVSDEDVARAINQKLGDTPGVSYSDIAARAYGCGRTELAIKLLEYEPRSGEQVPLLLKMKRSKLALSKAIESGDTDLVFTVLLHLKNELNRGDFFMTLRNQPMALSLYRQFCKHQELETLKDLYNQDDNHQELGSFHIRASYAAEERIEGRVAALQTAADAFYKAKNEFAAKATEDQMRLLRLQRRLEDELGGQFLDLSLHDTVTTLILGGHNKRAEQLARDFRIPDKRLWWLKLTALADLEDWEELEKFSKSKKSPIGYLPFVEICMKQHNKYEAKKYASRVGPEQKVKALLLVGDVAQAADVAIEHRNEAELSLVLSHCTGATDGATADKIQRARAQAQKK
Sequence of UniProt Q9BQB6 (Q9BQB6 whole entry): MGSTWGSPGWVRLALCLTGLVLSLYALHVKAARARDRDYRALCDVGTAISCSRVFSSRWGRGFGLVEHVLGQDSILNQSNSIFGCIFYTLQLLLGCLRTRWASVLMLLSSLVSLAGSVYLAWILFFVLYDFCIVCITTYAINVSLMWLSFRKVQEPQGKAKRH
Sequence of UniProt Q9H9H4 (Q9H9H4 whole entry): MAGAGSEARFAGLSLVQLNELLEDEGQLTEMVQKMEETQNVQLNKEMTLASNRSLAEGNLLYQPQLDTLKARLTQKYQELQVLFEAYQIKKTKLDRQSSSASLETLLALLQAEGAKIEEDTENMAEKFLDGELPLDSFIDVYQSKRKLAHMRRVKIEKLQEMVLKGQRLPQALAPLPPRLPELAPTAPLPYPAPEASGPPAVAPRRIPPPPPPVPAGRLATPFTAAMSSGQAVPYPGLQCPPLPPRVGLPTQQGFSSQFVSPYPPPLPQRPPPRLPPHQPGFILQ
Sequence of UniProt Q86VN1 (Q86VN1 whole entry): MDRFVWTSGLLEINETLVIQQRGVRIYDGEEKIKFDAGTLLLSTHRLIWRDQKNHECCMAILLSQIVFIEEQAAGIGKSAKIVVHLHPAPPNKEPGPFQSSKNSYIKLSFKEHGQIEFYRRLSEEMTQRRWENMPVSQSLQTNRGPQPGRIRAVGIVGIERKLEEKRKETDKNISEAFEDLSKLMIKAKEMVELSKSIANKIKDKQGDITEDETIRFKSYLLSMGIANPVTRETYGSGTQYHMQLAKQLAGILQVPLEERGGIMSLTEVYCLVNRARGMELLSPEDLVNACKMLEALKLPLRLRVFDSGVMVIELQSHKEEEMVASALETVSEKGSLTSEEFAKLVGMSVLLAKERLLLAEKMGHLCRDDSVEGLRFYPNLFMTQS
Sequence of UniProt Q9UK41 (Q9UK41 whole entry): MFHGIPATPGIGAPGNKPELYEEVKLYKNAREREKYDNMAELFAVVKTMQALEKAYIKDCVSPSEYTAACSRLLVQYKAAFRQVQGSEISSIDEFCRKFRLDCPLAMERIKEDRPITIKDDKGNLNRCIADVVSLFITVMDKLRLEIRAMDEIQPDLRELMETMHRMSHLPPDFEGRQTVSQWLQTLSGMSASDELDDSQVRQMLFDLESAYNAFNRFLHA
Sequence of UniProt O75351 (O75351 whole entry): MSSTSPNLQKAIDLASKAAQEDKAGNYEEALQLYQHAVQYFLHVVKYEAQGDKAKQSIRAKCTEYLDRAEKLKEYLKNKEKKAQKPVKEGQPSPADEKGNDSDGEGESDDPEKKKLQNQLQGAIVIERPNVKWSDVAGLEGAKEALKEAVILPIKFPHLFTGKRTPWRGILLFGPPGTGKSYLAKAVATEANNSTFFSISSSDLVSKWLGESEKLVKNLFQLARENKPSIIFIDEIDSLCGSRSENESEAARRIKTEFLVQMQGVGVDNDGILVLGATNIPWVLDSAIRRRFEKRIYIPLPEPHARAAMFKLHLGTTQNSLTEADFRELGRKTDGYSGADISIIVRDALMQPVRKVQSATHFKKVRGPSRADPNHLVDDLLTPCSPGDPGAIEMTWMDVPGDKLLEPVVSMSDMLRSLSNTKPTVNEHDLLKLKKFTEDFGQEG
Sequence of UniProt Q8N0U8 (Q8N0U8 whole entry): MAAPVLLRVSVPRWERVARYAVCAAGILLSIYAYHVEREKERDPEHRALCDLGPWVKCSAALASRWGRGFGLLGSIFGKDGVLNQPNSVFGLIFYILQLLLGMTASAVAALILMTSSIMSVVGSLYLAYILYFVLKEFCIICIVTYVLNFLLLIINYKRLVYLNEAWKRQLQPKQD

Row | Target | thermal stability z-score (potassium arsenate) | thermal stability z-score (lipoamide; [1]) | thermal stability z-score (lipoamide; arsenate co-treatment: none)
1 | VKORC1 (UniProt Q9BQB6) | 0.856 | -1.71 | -1.59
2 | VKORC1L1 (UniProt Q8N0U8) | 0.544 | 0.529 | -0.318
3 | VLDLR (UniProt P98155) | -0.86 | -0.517 | -0.526
4 | VMP1 (UniProt Q96GC9) | -0.372 | -1.19 | -1.69
5 | VPRBP (UniProt Q9Y4B6) | 0.0129 | -0.368 | -0.578
6 | VPS4A (UniProt Q9UN37) | -0.19 | -0.367 | -0.472
7 | VPS4B (UniProt O75351) | 0.314 | 0.854 | 0.498
8 | VPS8 (UniProt Q8N3P4) | -0.17 | -0.0735 | -0.283
9 | VPS11 (UniProt Q9H270) | 0.734 | -0.214 | -0.578
10 | VPS13A (UniProt Q96RL7) | 0.945 | 1.04 | 0.949
11 | VPS13B (UniProt Q7Z7G8) | -0.168 | 0.291 | 0.491
12 | VPS13C (UniProt Q709C8) | -0.213 | 0.038 | -0.033
13 | VPS13D (UniProt Q5THJ4) | -0.13 | 0.236 | 0.0716
14 | VPS16 (UniProt Q9H269) | 1.02 | -0.305 | 0.0437
15 | VPS18 (UniProt Q9P253) | 0.788 | -0.401 | -0.805
16 | VPS25 (UniProt Q9BRG1) | 0.0183 | -0.593 | -0.349
17 | VPS26A (UniProt O75436) | 0.335 | 0.178 | -0.395
18 | VPS26B (UniProt Q4G0F5) | 0.0841 | 0.123 | -0.118
19 | VPS28 (UniProt Q9UK41) | 0.492 | 0.513 | 0.681
20 | VPS29 (UniProt Q9UBQ0) | -0.613 | -0.418 | -0.247
21 | VPS33A (UniProt Q96AX1) | -0.027 | -0.0394 | -0.0312
22 | VPS33B (UniProt Q9H267) | 0.205 | -0.333 | 0.0129
23 | VPS35 (UniProt Q96QK1) | -0.541 | 0.247 | 0.378
24 | VPS36 (UniProt Q86VN1) | 0.0802 | -0.308 | -0.0675
25 | VPS37A (UniProt Q8NEZ2) | 0.0736 | 0.0547 | 0.243
26 | VPS37B (UniProt Q9H9H4) | -0.0299 | -0.0126 | 0.246
27 | VPS39 (UniProt Q96JC1) | 0.407 | -0.937 | -0.6

— the supplement of paper PMC12463676, “Small-molecule dissolution of stress granules by redox modulation benefits ALS models” (Nature Chemical Biology, 2025)
